Source: patent publication US12708605B2, “Method of administering a hormone encapsulated by a hydrogel with a dual chamber syringe” (VITALTE LIFESCIENCES INC., priority 2024, dated 2026)

Experiment: Saturation level of T in saline (T powder slurry)
Assay type: physicochemical
Procedure: The T powder was produced as a 2.5 mg/mL slurry in buffer to reach the near saturation point of T in the buffer. Samples of the T powder slurry were removed from only the top layer of the slurry fluid to avoid aspirating T particles in the slurry that may have precipitated at to the bottom. T pellets were collected directly from the vials in which they were stored. The 83 mg hydrogels containing 30% T were collected from Dulbecco's PBS buffer, rinsed, and dried. Each of the collected samples was then placed in a separate container of incubation media (saline in this instance) for the release studies.
Samples of the respective incubation media for the T powder, pelleted T, and hydrogel encapsulated T were collected at 4, 24, and 48 hours, with 2-3 replicates from each experimental group at each collection time. All collected samples were then diluted before assaying for released T in the incubation media. Initially, the samples collected at 4 hours were diluted 400-fold, while the samples collected at 24 and 48 hours were diluted 1600-fold. […] As a result, dilution testing was performed at dilutions of 1200, 1600, 1800, 2200, 2400, and 3000-fold. […]

## C[C@]12CC[C@H]3[C@@H](CCC4=CC(=O)CC[C@@]43C)[C@@H]1CC[C@@H]2O [T powder, Testosterone]
  approximate saturation level of T in saline: about 1.5 mg/L
